Measured values published in US7135625B2, “Gene concerning brassinosteroid-sensitivity of plants and utilization thereof” (National Institute of Agrobiological Sciences, priority 2000, dated 2006).

Tests used:
Format in all cases: in vivo, Oriza sativa
[1] = tested on: wild type plants (rice seedlings); assay: Germination of seeds on agar plates with or without brassinolide, wild type; conditions: 1 μM brassinolide on agar plates, observed 1 day after germination
Description: (§1) Rice (Oriza sativa) seeds were soaked in distilled water and made to imbibe for 48 h at 30° C. After washing the seeds with distilled water several times, the seeds were germinated in a dark chamber at 30° C. for 8 days. Rice plants were grown in the field or in the greenhouse at 30° C. (day) and 24° C. (night).
(§2) Next, seeds of the wild type and mutant plants were germinated on agar plates with or without 1 μM brassinolide. The characteristics of whole seedlings were observed 1 day after germination.

[2] = tested on: d61-1 and d61-2 mutant seedlings; assay: Germination of seeds on agar plates with or without brassinolide, d61 mutants; conditions: 1 μM brassinolide on agar plates, observed 1 day after germination
Description: as §1, §2

[3] = tested on: wild type T65 plant; assay: Lamina joint test, wild type; conditions: wild type T65, first leaf, 10^−3 and 10^−2 μg/ml
Description: (§3) The degree of bending between the leaf blade and leaf sheath in rice is well known to be sensitive to the concentration of brassinolide or its related compounds. This unusual character of rice leaf is the basis for a quantitative bioassay for brassinosteroids, known as the lamina joint test (Wada, Ketal. (1981) Plant and Cell Physiol. 22, 323–325), even though the biological function of endogenous brassinosteroids in monocotyledonous plants including rice remains unknown. If the mutants are less sensitive to brassinosteroids, the degree of bending between the leaf blade and sheath of the mutant plants will be less than that of the wild type plants.
(§4) Lamina joints of first leave of wild type T65 plant (the background strain of the mutants), d61-1 mutant, and d61-2 mutant were tested with 10^−3 and 10^−2 μg/ml of brassinosteroids, respectively.

[4] = tested on: d61-1 mutant and d61-2 mutant; assay: Lamina joint test, d61 mutants
Description: as §3, §4

[5] = tested on: OsBRI1 mRNA; assay: Effect of exogenous brassinolide on the level of OsBRI1 mRNA (RNA hybridization); conditions: light- and dark-grown seedlings, 0.9% agar plates with 1 μM brassinolide, six days
Description: RNA was isolated from various rice tissues as described in literature (Chomczynski, P. and Sacchi, N.: Anal. Biochem. (1987) 162:156). Ten μg of total RNA were electrophoresed in a 1% agarose gel, then transferred to a Hybond N^+ membrane (Amersham), and analyzed by RNA gel blot hybridization. The present inventors used a partial cDNA fragment (Ser^740 to Asp^1116 corresponding to the kinase domain), as a probe which specifically hybridized to the genomic DNA fragment encoding OsBRI1. DNA hybridization analysis was performed with the same probe and hybridization conditions as described above.
The present inventors also tested the effects of exogenously applied brassinolide and light on the level of OsBRI1 mRNA. Germinating seeds were placed on 0.9% agar plates with or without 1 μM brassinolide and grown for six days in the light or dark.

[6] = tested on: d61 mutants; assay: Restoration of dwarfism of d61 mutants by application of brassinolide

CC(C)[C@H](C)[C@@H](O)[C@H](O)[C@@H](C)[C@H]1CC[C@H]2[C@@H]3COC(=O)[C@H]4C[C@H](O)[C@H](O)C[C@]4(C)[C@H]3CC[C@]12C [brassinolide]
growth of seedlings (coleoptile, foliage leaves) [1]: elongated abnormally | root elongation [1]: inhibited | growth of seedlings (coleoptile, foliage leaves) ([1]; listed as BL): induced abnormal growth | growth of seedlings [2]: normal growth patterns | growth of seedlings ([2]; listed as BL): not affected | degree of bending between leaf blade and leaf sheath [3]: even more bent | degree of bending between leaf blade and leaf sheath ([4]; d61-1 and d61-2 mutants, first leaf, 10^−3 and 10^−2 μg/ml): degree of bending increased | degree of bending between leaf blade and leaf sheath ([4]; d61-2 mutant, 10^−2 μg/ml brassinolide): bent at less than a right angle | level of OsBRI1 expression [5]: reduced level of OsBRI1 expression | restoration of the dwarfism of the d61 mutants [6]: could not be achieved
